In patent US7247628B2, “Cannabinoid receptor ligands and uses thereof” (Pfizer, Inc., priority 2002, dated 2007):

Target: T1, CB-1 receptor (Homo sapiens, UniProt P21554)
T1 construct: expressed in transfected cells; host or cells: HEK 293 cells (membrane preparation); cDNA obtained from Dr. Debra Kendall, University of Connecticut
Assay: Human CB-1 receptor binding ([3H]SR141716A displacement)
Conditions: CB-1 receptor binding assay, inhibition of [3H] SR141716A binding
Protocol: Human embryonic kidney 293 (HEK 293) cells transfected with the CB-1 receptor cDNA (obtained from Dr. Debra Kendall, University of Connecticut) were harvested in homogenization buffer (10 mM EDTA, 10 mM EGTA, 10 mM Na Bicarbonate, protease inhibitors; pH=7.4), and homogenized with a Dounce Homogenizer. The homogenate was then spun at 1,000×g for 5 minutes at 4° C. The supernatant was recovered and centrifuged at 25,000×G for 20 minutes at 4° C. The pellet was then re-suspended in 10 ml of homogenization buffer and re-spun at 25,000×G for 20 minutes at 4° C. The final pellet was re-suspended in 1 ml of TME (25 mM Tris buffer (pH=7.4) containing 5 mM MgCl2 and 1 mM EDTA). A protein assay was performed and 200 μl of tissue totaling 20 μg was added to the assay.
The test compounds were diluted in drug buffer (0.5% BSA, 10% DMSO and TME) and then 25 μl were added to a deep well polypropylene plate. [^3H] SR141716A was diluted in a ligand buffer (0.5% BSA plus TME) and 25 μl were added to the plate. The plates were covered and placed in an incubator at 30° C. for 60 minutes. At the end of the incubation period 250 μl of stop buffer (5% BSA plus TME) was added to the reaction plate. […] In the morning the filters were counted on a Wallac Betaplate™ counter (available from PerkinElmer Life Sciences™, Boston, Mass.).

T1 sequence (P21554 whole entry): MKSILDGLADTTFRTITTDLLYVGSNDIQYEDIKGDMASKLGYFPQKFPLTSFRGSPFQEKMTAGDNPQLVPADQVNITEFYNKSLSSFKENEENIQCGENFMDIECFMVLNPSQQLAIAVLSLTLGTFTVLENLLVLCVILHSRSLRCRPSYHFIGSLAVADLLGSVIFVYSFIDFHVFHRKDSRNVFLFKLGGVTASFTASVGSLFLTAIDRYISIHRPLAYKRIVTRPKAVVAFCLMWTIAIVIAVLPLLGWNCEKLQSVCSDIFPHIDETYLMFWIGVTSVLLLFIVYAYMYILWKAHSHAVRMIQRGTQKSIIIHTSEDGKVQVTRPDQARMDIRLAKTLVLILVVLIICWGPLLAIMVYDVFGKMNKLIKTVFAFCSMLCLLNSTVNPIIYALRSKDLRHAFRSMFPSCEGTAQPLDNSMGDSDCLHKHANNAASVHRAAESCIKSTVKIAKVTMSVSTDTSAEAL

## Cc1cccc(CN2CCOC(c3nn(-c4ccccc4Cl)c(-c4ccc(Cl)cc4)c3C)C2)n1 (stereo not shown) [Example 5A-6, 2-[1-(2-Chlorophenyl)-5-(4-chlorophenyl)-4-methyl-1H-pyrazol-3-yl]-4-(6-methyl-pyridin-2-ylmethyl)-morpholine]
  binding affinity: 79 nM
